Reference: ChEMBL document CHEMBL1157056, “Synthesis and anti-inflammatory evaluation of some condensed [4-(3,4-dimethylphenyl)-1(2H)-oxo-phthalazin-2-yl]acetic acid hydrazide” (Eur J Med Chem, 2010)
Activity calls are given as the source filed them. The rule behind the calls is not given here.

Test system: Rattus norvegicus
Experiment: Antiinflammatory activity in rat at 20 mg/kg, ip after 10 days by sponge implantation method
Format: functional, organism-based
Parameters: dose 20 mg/kg

CC1=NN(C(=O)Cn2nc(-c3ccc(C)c(C)c3)c3ccccc3c2=O)C(=O)C1
Activity: Active

CCO/C=N/NC(=O)Cn1nc(-c2ccc(C)c(C)c2)c2ccccc2c1=O
Activity: Active

Cc1ccc(-c2nn(Cc3n[nH]c(=S)o3)c(=O)c3ccccc23)cc1C
Activity: Active

Cc1ccc(-c2nn(CC(=O)NNC(=S)NCc3ccccc3)c(=O)c3ccccc23)cc1C
Activity: Active

Cc1ccc(-c2nn(CC(=O)N/N=C/NN)c(=O)c3ccccc23)cc1C
Activity: Active
